This passage reports T/C results from PubChem BioAssay AID248 (DTP/NCI, 2004).

The subject of this assay is L1210 leukemia ip in BDF1 mice, survival T/C. Put plainly: NCI In Vivo Anticancer Drug Screen. Data for tumor model L1210 Leukemia (intraperitoneal) in B6D2F1 (BDF1) mice. To be noted: higher = longer survival. The method, boiled down:
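Each compound was tested against a transplantable tumor grown in mice. The endpoint was survival, with treated animals benchmarked against vehicle controls as a simple ratio.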

Setting [1] is: endpoint: mean survival time, dose: 100.0 mg/kg/injection, schedule: Q01DX001 (ip), vehicle: saline.
The mark [2] stands for this setting: endpoint: mean survival time, dose: 100.0 mg/kg/injection, schedule: Q01DX009 (ip), vehicle: saline.
Where [3] appears, read: endpoint: mean survival time, dose: 200.0 mg/kg/injection, schedule: Q01DX001 (ip), vehicle: saline.
Setting [4] is: endpoint: mean survival time, dose: 100.0 mg/kg/injection, schedule: Q04DX003 (ip), vehicle: saline with Tween-80.
Setting [5] is: endpoint: mean survival time, dose: 200.0 mg/kg/injection, schedule: Q04DX003 (ip), vehicle: saline with Tween-80.
Where [6] appears, read: endpoint: mean survival time, dose: 400.0 mg/kg/injection, schedule: Q04DX003 (ip), vehicle: saline with Tween-80.
Setting [7] is: endpoint: mean survival time, dose: 100.0 mg/kg/injection, schedule: Q01DX001 (ip), vehicle: other.
[8] abbreviates: endpoint: mean survival time, dose: 200.0 mg/kg/injection, schedule: Q01DX001 (ip), vehicle: other.
Where [9] appears, read: endpoint: mean survival time, dose: 400.0 mg/kg/injection, schedule: Q01DX001 (ip), vehicle: other.
[10] abbreviates: endpoint: mean survival time, dose: 100.0 mg/kg/injection, schedule: Q01DX009 (ip), vehicle: Klucel (hydroxypropylcellulose) (HPC).
[11] abbreviates: endpoint: mean survival time, dose: 200.0 mg/kg/injection, schedule: Q01DX009 (ip), vehicle: Klucel (hydroxypropylcellulose) (HPC).
The mark [12] stands for this setting: endpoint: mean survival time, dose: 400.0 mg/kg/injection, schedule: Q01DX009 (ip), vehicle: Klucel (hydroxypropylcellulose) (HPC).

Where “and” joins values, the source holds several entries; their conditions need not be identical. Identical values can stand only once. Toxic doses and inconclusive results are not listed.

As for `Cc1cn(CC(=O)c2c[nH]c3ccccc23)c(=O)[nH]c1=O`, the T/C (endpoint: mean survival time, dose: 100.0 mg/kg/injection, schedule: Q04DX002 (ip), vehicle: saline with Tween-80) is 101 % of control; the T/C (endpoint: mean survival time, dose: 200.0 mg/kg/injection, schedule: Q04DX002 (ip), vehicle: saline with Tween-80) was 101 % of control; the T/C (endpoint: mean survival time, dose: 400.0 mg/kg/injection, schedule: Q04DX002 (ip), vehicle: saline with Tween-80) is 93 % of control.

As to `Nc1ccc(Cc2ccc(N)c(Br)c2)cc1Br`, the T/C runs as follows: (endpoint: mean survival time, dose: 50.0 mg/kg/injection, schedule: Q01DX009 (ip), vehicle: saline) 102 % of control; under setting [1], 93 % of control; under setting [2], 98 % of control; under setting [3], 98 % of control.

For `CN(C)C(=O)Sc1cccnc1`, the T/C reads like this: under setting [2], 116 % of control; (endpoint: mean survival time, dose: 200.0 mg/kg/injection, schedule: Q01DX009 (ip), vehicle: saline) 119 % of control.

Regarding `COC1OC(CN=[N+]=[N-])C(N=[N+]=[N-])C(OS(C)(=O)=O)C1OS(C)(=O)=O` (stereo not given), the T/C was 92 % of control under setting [4], 90 % of control under setting [5] and 94 % of control under setting [6].

With `CN(C)C(=O)N/C=C/NC(=O)N(C)C`, the T/C was 92 % of control (endpoint: mean survival time, dose: 12.5 mg/kg/injection, schedule: Q04DX002 (ip), vehicle: saline with Tween-80); 89 % of control (endpoint: mean survival time, dose: 25.0 mg/kg/injection, schedule: Q04DX002 (ip), vehicle: saline with Tween-80); 106 % of control (endpoint: mean survival time, dose: 50.0 mg/kg/injection, schedule: Q04DX002 (ip), vehicle: saline with Tween-80).

Regarding `CC(C)(C)Cc1cc(O)c2c(c1O)C(=O)c1ccccc1C2=O`, the T/C runs as follows: (endpoint: mean survival time, dose: 100.0 mg/kg/injection, schedule: Q01DX009 (ip), vehicle: saline with Tween-80) 98 % of control; under setting [4], 97 % of control; (endpoint: mean survival time, dose: 200.0 mg/kg/injection, schedule: Q01DX009 (ip), vehicle: saline with Tween-80) 98 % of control; under setting [5], 97 % of control; (endpoint: mean survival time, dose: 400.0 mg/kg/injection, schedule: Q01DX009 (ip), vehicle: saline with Tween-80) 96 % of control; under setting [6], 92 % of control.

With `CC(C)(O)/C=C/C(=O)[C@](C)(O)[C@H]1[C@H](O)C[C@@]2(C)[C@@H]3CC=C4[C@@H](C[C@H](O)C(=O)C4(C)C)[C@]3(C)C(=O)C[C@]12C`, the T/C by setting is: (endpoint: mean survival time, dose: 0.5 mg/kg/injection, schedule: Q01DX001 (sc), vehicle: steriod suspending solution) 102 % of control; (endpoint: mean survival time, dose: 1.0 mg/kg/injection, schedule: Q01DX001 (sc), vehicle: steriod suspending solution) 98 % of control.

For the compound `COC(=O)c1ccc(N(C)CC/C(CN)=N/NC(N)=O)cc1`, the T/C by setting is: (endpoint: mean survival time, dose: 100.0 mg/kg/injection, schedule: Q01DX001 (ip), vehicle: carboxymethylcellulose (CMC)) 96 % of control; (endpoint: mean survival time, dose: 200.0 mg/kg/injection, schedule: Q01DX001 (ip), vehicle: carboxymethylcellulose (CMC)) 96 % of control; (endpoint: mean survival time, dose: 400.0 mg/kg/injection, schedule: Q01DX001 (ip), vehicle: carboxymethylcellulose (CMC)) 102 % of control.

Consider `O=Cc1cc(Br)ccc1[N+](=O)[O-]`, for which the T/C is, setting by setting: under setting [1], 103 % of control; under setting [3], 103 % of control; (endpoint: mean survival time, dose: 400.0 mg/kg/injection, schedule: Q01DX001 (ip), vehicle: saline) 101 % of control.

Consider `CCCCCOC(=O)c1cccc2c1-c1ccccc1C2=O`, for which the T/C reads like this: under setting [7], 93 % of control; under setting [8], 98 % of control; under setting [9], 93 % of control.

In the case of `C#CCCCCCCl`, the T/C runs as follows: under setting [7], 95 % of control; under setting [8], 102 % of control.

In the case of `O=[N+]([O-])c1ccc(O)c([N+](=O)[O-])c1`, the T/C was 94 % of control (endpoint: mean survival time, dose: 3.35 mg/kg/injection, schedule: Q01DX Z (ip), vehicle: carboxymethylcellulose (CMC)); 95 % of control (endpoint: mean survival time, dose: 10.32 mg/kg/injection, schedule: Q01DX Z (ip), vehicle: carboxymethylcellulose (CMC)); 98 % of control (endpoint: mean survival time, dose: 13.4 mg/kg/injection, schedule: Q01DX Z (ip), vehicle: carboxymethylcellulose (CMC)); 94 % of control (endpoint: mean survival time, dose: 17.86 mg/kg/injection, schedule: Q01DX Z (ip), vehicle: carboxymethylcellulose (CMC)); 88 % of control (endpoint: mean survival time, dose: 26.8 mg/kg/injection, schedule: Q01DX Z (ip), vehicle: carboxymethylcellulose (CMC)); 94 % of control under setting [1].

Turning to `O=C(N/N=C/c1ccccc1[N+](=O)[O-])c1ccccc1`, the T/C by setting is: under setting [10], 94 % of control; under setting [11], 94 % of control; under setting [12], 97 % of control.

With `O=NN(CCCl)C(=O)NCc1ccc(-c2ccc(CNC(=O)N(CCCl)N=O)cc2)cc1`, the T/C is 156 % of control and 188 % of control (endpoint: mean survival time, dose: 177.0 mg/kg/injection, schedule: Q01DX001 (ip), vehicle: other); 180 % of control (endpoint: mean survival time, dose: 266.0 mg/kg/injection, schedule: Q01DX001 (ip), vehicle: other); 194 % of control under setting [9]; 159 % of control and 274 % of control (endpoint: mean survival time, dose: 400.0 mg/kg/injection, schedule: Q01DX009 (ip), vehicle: carboxymethylcellulose (CMC)); 264 % of control (endpoint: mean survival time, dose: 600.0 mg/kg/injection, schedule: Q01DX001 (ip), vehicle: other); 261 % of control (endpoint: mean survival time, dose: 600.0 mg/kg/injection, schedule: Q01DX009 (ip), vehicle: carboxymethylcellulose (CMC)).

Consider `N=c1nc2n(cc1F)C1OC(CO)C(O)C1O2` (stereo not given), for which the T/C is 163 % of control (endpoint: median survival time, dose: 200.0 mg/kg/injection, schedule: Q01DX005 (ip), vehicle: other) and 163 % of control (endpoint: median survival time, dose: 400.0 mg/kg/injection, schedule: Q01DX005 (ip), vehicle: other).

Consider `CC(=O)Nc1ccccc1C(=NC1CCCC1)C(=O)NC1CCCC1`, for which the T/C reads like this: (endpoint: mean survival time, dose: 3.12 mg/kg/injection, schedule: Q01DX009 (ip), vehicle: Klucel (hydroxypropylcellulose) (HPC)) 97 % of control; (endpoint: mean survival time, dose: 6.25 mg/kg/injection, schedule: Q01DX009 (ip), vehicle: Klucel (hydroxypropylcellulose) (HPC)) 94 % of control; (endpoint: mean survival time, dose: 12.5 mg/kg/injection, schedule: Q01DX009 (ip), vehicle: Klucel (hydroxypropylcellulose) (HPC)) 89 % of control; under setting [12], 95 % of control.

For the compound `c1nc2c([nH]1)CCCC2`, the T/C reads like this: (endpoint: mean survival time, dose: 25.0 mg/kg/injection, schedule: Q01DX001 (ip), vehicle: carboxymethylcellulose (CMC)) 106 % of control; (endpoint: mean survival time, dose: 25.0 mg/kg/injection, schedule: Q01DX009 (ip), vehicle: carboxymethylcellulose (CMC)) 103 % of control and 91 % of control; (endpoint: mean survival time, dose: 25.0 mg/kg/injection, schedule: Q04DX002 (ip), vehicle: carboxymethylcellulose (CMC)) 94 % of control and 102 % of control; (endpoint: mean survival time, dose: 25.0 mg/kg/injection, schedule: Q04DX003 (ip), vehicle: carboxymethylcellulose (CMC)) 95 % of control; (endpoint: mean survival time, dose: 50.0 mg/kg/injection, schedule: Q01DX001 (ip), vehicle: carboxymethylcellulose (CMC)) 102 % of control; (endpoint: mean survival time, dose: 50.0 mg/kg/injection, schedule: Q01DX009 (ip), vehicle: carboxymethylcellulose (CMC)) 94 % of control and 92 % of control. For the same compound, the T/C was 94 % of control and 104 % of control (endpoint: mean survival time, dose: 50.0 mg/kg/injection, schedule: Q04DX002 (ip), vehicle: carboxymethylcellulose (CMC)); 105 % of control (endpoint: mean survival time, dose: 50.0 mg/kg/injection, schedule: Q04DX003 (ip), vehicle: carboxymethylcellulose (CMC)); 92 % of control (endpoint: mean survival time, dose: 100.0 mg/kg/injection, schedule: Q04DX003 (ip), vehicle: carboxymethylcellulose (CMC)).

For the compound `Oc1ccc(-c2cc3c(O)ccc(O)c3[nH]2)cc1`, the T/C (endpoint: mean survival time, dose: 50.0 mg/kg/injection, schedule: Q04DX002 (ip), vehicle: Klucel (hydroxypropylcellulose) (HPC)) was 96 % of control; the T/C (endpoint: mean survival time, dose: 100.0 mg/kg/injection, schedule: Q04DX002 (ip), vehicle: Klucel (hydroxypropylcellulose) (HPC)) is 105 % of control; the T/C (endpoint: mean survival time, dose: 200.0 mg/kg/injection, schedule: Q04DX002 (ip), vehicle: Klucel (hydroxypropylcellulose) (HPC)) is 102 % of control.

For the compound `CCCCOC(=O)c1ccc(NC(=O)NC)cc1`, the T/C runs as follows: under setting [10], 100 % of control; under setting [11], 101 % of control; under setting [12], 101 % of control.
